Assay results published in BigSolDB 2.1.

CC(=O)N[C@@H](C=O)[C@@H](O)[C@H](O)[C@H](O)CO
solubility (mole fraction)
Settings | 283.15 K | 288.15 K | 293.15 K | 298.15 K | 303.15 K | 308.15 K | 313.15 K
in acetone | 4.1e-05 | 7.2e-05 | 8.7e-05 | 0.000115 | 0.000161 | 0.000193 | 0.000241
in ethanol | 0.000166 | 0.000223 | 0.000242 | 0.000268 | 0.000313 | 0.000342 | 0.000382
in methanol | 0.000634 | 0.0007 | 0.000808 | 0.000907 | 0.00109 | 0.00136 | 0.00157
in n-propanol | 7.3e-05 | 8.5e-05 | 0.000115 | 0.000166 | 0.000241 | 0.000324 | 0.000392
in water | 0.0219 | 0.0236 | 0.0257 | 0.028 | 0.0302 | 0.0324 | 0.0344
